These are literature values, as cited in patent publication US20040235879A1, “Method for treatment of chemotherapy-induced diarrhea” (priority 2003, published 2004).

The conditions of data set [1]: cited from earlier work.
In data set [2] the target is MRP2 (ABCC2) (Homo sapiens, UniProt Q92887). Particulars: cited from earlier work.
Data set [3] concerns the target T1, BCRP/MXR/ABCP (ABCG2) (Homo sapiens, UniProt Q9UNQ0).
T1 sequence (Q9UNQ0 1-655): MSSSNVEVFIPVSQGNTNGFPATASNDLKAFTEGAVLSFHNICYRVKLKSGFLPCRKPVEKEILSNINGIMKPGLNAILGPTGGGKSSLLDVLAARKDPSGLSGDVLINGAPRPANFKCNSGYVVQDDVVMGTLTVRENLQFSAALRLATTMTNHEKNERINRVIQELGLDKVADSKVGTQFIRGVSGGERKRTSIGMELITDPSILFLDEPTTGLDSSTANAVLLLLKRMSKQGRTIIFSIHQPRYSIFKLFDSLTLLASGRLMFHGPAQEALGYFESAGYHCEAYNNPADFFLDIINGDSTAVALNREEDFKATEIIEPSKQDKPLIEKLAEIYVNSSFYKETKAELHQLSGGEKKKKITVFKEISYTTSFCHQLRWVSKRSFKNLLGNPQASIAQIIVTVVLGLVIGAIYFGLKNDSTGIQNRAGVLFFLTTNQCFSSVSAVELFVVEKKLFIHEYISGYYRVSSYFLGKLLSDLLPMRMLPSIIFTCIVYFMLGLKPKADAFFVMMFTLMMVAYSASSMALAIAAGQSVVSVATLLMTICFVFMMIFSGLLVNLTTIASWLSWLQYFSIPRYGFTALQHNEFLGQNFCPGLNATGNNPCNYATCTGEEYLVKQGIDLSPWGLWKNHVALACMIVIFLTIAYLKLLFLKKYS
Particulars: cited from earlier work.

In data set [4] the target is P-gp (ABCB1) (Homo sapiens, UniProt P08183). The conditions noted are these: cited from earlier work.

Structures are written as SMILES. Where a name gives a salt, the structure may show the parent alone.

Chain of P-gp (ABCB1) (P08183 whole entry, species assumed): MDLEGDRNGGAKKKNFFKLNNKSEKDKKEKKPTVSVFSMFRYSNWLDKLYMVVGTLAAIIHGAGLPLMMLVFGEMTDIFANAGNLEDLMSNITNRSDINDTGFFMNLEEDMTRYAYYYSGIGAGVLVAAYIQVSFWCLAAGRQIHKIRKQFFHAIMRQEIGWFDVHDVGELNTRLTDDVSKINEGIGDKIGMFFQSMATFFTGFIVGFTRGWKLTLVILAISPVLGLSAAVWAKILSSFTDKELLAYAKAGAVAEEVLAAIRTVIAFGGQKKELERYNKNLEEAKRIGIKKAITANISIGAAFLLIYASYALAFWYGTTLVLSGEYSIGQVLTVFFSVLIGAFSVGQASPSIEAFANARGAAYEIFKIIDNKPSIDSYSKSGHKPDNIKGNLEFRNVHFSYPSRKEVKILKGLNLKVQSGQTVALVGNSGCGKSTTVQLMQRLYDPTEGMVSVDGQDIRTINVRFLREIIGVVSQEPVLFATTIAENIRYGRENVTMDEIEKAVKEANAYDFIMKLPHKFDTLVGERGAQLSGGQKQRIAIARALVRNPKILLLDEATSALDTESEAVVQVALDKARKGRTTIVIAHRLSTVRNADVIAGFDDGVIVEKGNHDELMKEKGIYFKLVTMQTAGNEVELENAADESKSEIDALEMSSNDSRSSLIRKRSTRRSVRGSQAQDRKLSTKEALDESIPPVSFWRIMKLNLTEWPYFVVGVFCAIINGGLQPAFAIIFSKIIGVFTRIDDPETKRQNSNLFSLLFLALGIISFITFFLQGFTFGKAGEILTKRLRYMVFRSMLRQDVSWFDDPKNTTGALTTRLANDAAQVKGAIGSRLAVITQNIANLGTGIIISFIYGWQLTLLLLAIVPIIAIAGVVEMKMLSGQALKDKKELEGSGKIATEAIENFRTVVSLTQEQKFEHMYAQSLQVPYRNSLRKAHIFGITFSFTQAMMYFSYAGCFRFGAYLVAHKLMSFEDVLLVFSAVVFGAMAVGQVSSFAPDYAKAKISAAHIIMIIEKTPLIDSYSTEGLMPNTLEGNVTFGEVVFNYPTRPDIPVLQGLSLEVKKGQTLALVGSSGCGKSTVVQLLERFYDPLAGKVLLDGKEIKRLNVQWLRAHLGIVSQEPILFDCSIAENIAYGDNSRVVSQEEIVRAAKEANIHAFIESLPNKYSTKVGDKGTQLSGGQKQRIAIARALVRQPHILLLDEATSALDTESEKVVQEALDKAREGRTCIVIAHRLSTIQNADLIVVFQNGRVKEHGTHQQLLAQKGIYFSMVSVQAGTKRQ
Chain of MRP2 (ABCC2) (Q92887 whole entry, species assumed): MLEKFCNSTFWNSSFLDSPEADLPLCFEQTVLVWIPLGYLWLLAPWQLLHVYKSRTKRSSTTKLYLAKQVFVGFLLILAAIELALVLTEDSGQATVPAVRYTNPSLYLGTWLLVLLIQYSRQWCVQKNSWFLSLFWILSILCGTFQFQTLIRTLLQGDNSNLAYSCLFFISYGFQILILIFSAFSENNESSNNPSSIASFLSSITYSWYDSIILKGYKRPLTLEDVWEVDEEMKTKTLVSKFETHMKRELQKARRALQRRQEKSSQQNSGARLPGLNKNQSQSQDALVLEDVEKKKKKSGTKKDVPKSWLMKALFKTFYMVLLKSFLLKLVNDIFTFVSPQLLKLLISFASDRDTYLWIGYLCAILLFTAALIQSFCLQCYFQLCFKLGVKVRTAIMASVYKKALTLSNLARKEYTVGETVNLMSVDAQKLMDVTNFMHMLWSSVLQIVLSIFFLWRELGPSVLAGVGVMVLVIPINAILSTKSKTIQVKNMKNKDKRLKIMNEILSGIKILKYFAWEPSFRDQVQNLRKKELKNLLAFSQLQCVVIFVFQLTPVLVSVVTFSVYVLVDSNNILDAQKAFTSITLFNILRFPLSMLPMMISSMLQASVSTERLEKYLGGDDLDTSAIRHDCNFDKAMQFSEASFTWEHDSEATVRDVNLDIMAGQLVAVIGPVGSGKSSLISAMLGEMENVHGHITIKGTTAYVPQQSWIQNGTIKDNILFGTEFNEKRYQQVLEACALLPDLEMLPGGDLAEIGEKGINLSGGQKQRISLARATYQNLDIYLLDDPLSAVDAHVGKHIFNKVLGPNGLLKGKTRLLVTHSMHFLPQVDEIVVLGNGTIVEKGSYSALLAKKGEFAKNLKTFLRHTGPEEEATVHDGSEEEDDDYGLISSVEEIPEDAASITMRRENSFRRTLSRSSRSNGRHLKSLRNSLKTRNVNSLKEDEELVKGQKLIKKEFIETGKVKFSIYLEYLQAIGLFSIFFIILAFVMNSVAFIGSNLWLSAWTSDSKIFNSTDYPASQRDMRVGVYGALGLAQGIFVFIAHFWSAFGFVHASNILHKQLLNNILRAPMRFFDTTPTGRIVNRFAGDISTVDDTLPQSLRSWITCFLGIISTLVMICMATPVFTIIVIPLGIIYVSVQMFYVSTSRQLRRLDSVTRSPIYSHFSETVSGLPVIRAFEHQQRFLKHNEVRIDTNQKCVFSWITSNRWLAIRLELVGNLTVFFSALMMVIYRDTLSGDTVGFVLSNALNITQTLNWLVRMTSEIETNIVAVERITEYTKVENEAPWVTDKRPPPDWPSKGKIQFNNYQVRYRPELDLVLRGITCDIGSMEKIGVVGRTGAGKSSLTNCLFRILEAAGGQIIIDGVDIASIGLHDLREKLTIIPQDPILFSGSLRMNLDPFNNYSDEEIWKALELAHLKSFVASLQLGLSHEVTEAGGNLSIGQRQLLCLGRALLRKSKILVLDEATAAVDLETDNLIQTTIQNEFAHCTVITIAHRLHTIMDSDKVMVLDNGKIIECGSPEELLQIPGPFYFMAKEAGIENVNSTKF

As to `O=c1[nH]cc(F)c(=O)[nH]1` [5-fluorouracil], in data set [1] (5-fluorouracil alone), the “patients with severe or life-threatening diarrhea” value is recorded as “About 8%”. The “frequency of severe or life-threatening diarrhea” value in data set [1] (5-fluorouracil combined with leucovorin) was “up to 25%”.
As for `CCc1c2c(nc3ccc(OC(=O)N4CCC(N5CCCCC5)CC4)cc13)-c1cc3c(c(=O)n1C2)COC(=O)[C@]3(O)CC` [CPT-11, Irinotecan hydrochloride], the “patients requiring hospitalization because of diarrhea” value in data set [1] (diarrhea alone or in combination with other gastrointestinal disturbances) is “more than 18%”.
As to `CCc1c2c(nc3ccc(OC(=O)N4CCC(N5CCCCC5)CC4)cc13)-c1cc3c(c(=O)n1C2)COC(=O)[C@]3(O)CC` [irinotecan, [1,4′-Bipiperidine]-1′-carboxylic acid (4S)-4,11-diethyl-3,4,12,14-tetrahydro-4-hydroxy-3,14-dioxo-1H-pyrano[3′,4′:6,7]indolizino[1,2-b]quinolin-9-yl ester], the “substrate of MRP2 (ABCC2)” value in data set [2] is reported as “substrate”. The “substrate of BCRP/MXR/ABCP (ABCG2)” value in data set [3] is “substrate”. Further, the “substrate of P-gp (ABCB1)” value in data set [4] is on record as “substrate”.
